From ChEMBL document CHEMBL5385962, “Beyond inhibition against the PD-1/PD-L1 pathway: development of PD-L1 inhibitors targeting internalization and degradation of PD-L1” (RSC Med Chem, 2024)

How the values were obtained:
[1] = system: MC-38; assay: Antitumor activity against mouse MC38 cells xenografted in BALB/c nude mouse assessed as inhibition of tumor growth at 200 mg/kg, po BID administered twice daily for 14 days relative to control; format: functional; parameters: scale not given: the % may be the effect or the level left; details: time 14 day
[2] = system: MC-38; assay: Antitumor activity against mouse MC38 cells xenografted in BALB/c nude mouse assessed as inhibition of tumor growth at 20 mg/kg, po BID administered twice daily for 14 days relative to control; format: functional; parameters: scale not given: the % may be the effect or the level left; details: time 14 day
[3] = system: MC-38; assay: Antitumor activity against mouse MC38 cells xenografted in BALB/c nude mouse assessed as inhibition of tumor growth at 2 mg/kg, po BID administered twice daily for 14 days relative to control; format: functional; parameters: scale not given: the % may be the effect or the level left; details: time 14 day
[4] = molecular target: Programmed cell death protein 1/Programmed cell death 1 ligand 1 (Homo sapiens, UniProt Q9NZQ7); assay: Inhibition of PD-1/PD-L1 interaction (unknown origin) incubated for 24 hrs by HTRF assay; format: protein-complex assay
Programmed cell death protein 1/Programmed cell death 1 ligand 1, sequence (Q15116 whole entry): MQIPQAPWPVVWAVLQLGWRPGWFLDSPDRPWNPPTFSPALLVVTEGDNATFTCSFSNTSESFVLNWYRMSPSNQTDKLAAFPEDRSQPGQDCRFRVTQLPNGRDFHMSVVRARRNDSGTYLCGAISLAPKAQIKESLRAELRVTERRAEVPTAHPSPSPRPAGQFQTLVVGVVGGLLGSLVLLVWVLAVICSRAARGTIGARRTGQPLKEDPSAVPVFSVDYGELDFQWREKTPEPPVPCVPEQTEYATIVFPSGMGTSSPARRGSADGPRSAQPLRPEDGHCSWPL
Programmed cell death protein 1/Programmed cell death 1 ligand 1, sequence (Q9NZQ7 whole entry): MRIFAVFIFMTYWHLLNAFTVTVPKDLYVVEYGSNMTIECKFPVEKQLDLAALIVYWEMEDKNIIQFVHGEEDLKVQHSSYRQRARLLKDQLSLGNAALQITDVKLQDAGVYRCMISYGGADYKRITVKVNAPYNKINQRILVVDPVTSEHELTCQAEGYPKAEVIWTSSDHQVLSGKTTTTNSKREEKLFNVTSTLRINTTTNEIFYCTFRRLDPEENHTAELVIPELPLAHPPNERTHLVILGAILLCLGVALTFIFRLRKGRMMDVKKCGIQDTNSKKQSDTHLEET

[5] = Antitumor activity against humanized mouse MC38-hPD-L1 cells implanted in hPD-1 knockin C57BL/6 mouse assessed as reduction in tumor cell proliferation at 10 mg/kg, ip administered for 7 days starting from day 7 post tumor implantation by flow cytometry analysis relative to control; parameters: scale not given: the % may be the effect or the level left; details: time 7 day
[6] = molecular target: Programmed cell death 1 ligand 1 (Mus musculus) (UniProt Q9EP73); assay: Induction of PD-L1 degradation in mouse CT26 cells
[7] = molecular target: Programmed cell death 1 ligand 1 (Mus musculus) (UniProt Q9EP73); assay: Induction of PD-L1 degradation in mouse B16-F10 cells
[8] = system: A-375; assay: Antiproliferative activity against human A-375 cells assessed as reduction in cell viability; format: functional, cell-based
[9] = system: B16-F10; assay: Antiproliferative activity against mouse B16-F10 cells assessed as reduction in cell viability; format: functional, cell-based
[10] = system: BGC-823; assay: PD-L1 degradation in human PD-L1 […] BGC-823 cells assessed as PD-L1 degradation rate at 10 to 20 uM incubated for 5 days by flow cytometry relative to control; details: dose 10-20 µM, time 5 day

## Cc1c(Nc2nccc3cc(CN4CC[C@@H](O)C4)cnc23)cccc1-c1cccc(-c2nc3cc(CN4CC[C@@H](C(=O)O)C4)cc(C#N)c3o2)c1C
[1]
  Activity: 69%
[2]
  Activity: 66%
[3]
  Activity: 32%

## Cc1c(NC(=O)c2nc3c(n2C)CCN(C[C@H](C)O)C3)cccc1-c1cccc(NC(=O)c2nc3c(n2C)CCN(C)C3)c1Cl
[4]
  IC50: < 1 nM

## Cc1c(NC(=O)c2ccc(CNCCO)cn2)cccc1-c1cccc(NC(=O)c2ccc(CNCCO)cn2)c1C
[5]
  Activity: 60.4%

## Cc1c(COc2cc(OCc3cccc(C#N)c3)c(CN3C[C@H](O)C[C@@H]3C(=O)O)cc2Cl)cccc1-c1ccc2c(c1)OCCO2
[6]
  DC50: 350 nM
[7]
  DC50: 390 nM

## COc1cc(OCc2cccc(-c3ccccc3)c2C)cc(OC)c1CNCCNC(=O)c1cn(CCOCCOCCOCCNc2cccc3c2C(=O)N(C2CCC(=O)NC2=O)C3=O)nn1 (stereo not given)
[8]
  IC50: 8070 nM
[9]
  IC50: 14000 nM

## Cc1nc(C)c(C(=O)OCc2ccccc2)c(CC(C)(C)C)c1C(=O)OCc1ccccc1
[10]
  PD-L1 degradation rate: 66.99%
